Measured values: patent US7355074B2, “Compounds having aromatic rings and side-chain amide-functionality and a method for transporting monovalent anions across biological membranes using the same” (The University of Maryland, priority 2003, dated 2008)

What was measured:
Assay type in all cases: biochemical
[1] = pH-assisted fluorimetric transport assay with calixarene amides (HPTS-loaded liposomes); conditions: extravesicular Na, K or Cs chloride; ligand lipid ratios of up to 1:20
Experimental: The ability of 1 and 2 to mediate ion flux across a lipid bilayer was studied fluorimetrically. A solution of 1 or 2 was added to a suspension of EYPC large unilamellar vesicles (LUVs) containing the pH-sensitive dye pyranine. An NaOH solution was added to the extravesicular buffer to create a gradient of approximately one pH unit. The resulting electrostatic potential, caused by proton efflux from the liposomes, can be compensated by cation influx or anion efflux, as mediated by the exogenous ligand. Ion transport across the membrane was signaled by the increase in relative fluorescence that accompanied the rise in intravesicular pH.
Liposome Preparation. EYPC HPTS-Containing LUVs, egg yolk 1-α-phosphatidylcholine (EYPC, 60 mg, […]) was dissolved in a CHCl3MeOH mixture, the solution was evaporated under reduced pressure, and the resulting thin film was dried under high vacuum for 2 h. The lipid film was hydrated in 1.2 mL of phosphate buffer (10 mM sodium phosphage, pH=6.4, 75-100 mM MX, M=Na^+, K^+, Cs^+, X=[…], SO4^2−) containing 10 μM HPTS (pyranine 8-hydroxypyrene-1,3,6-trisulfonic acid trisodium salt) for 2 h. The LUV suspension (1 mL) was submitted to high-pressure extrusion at room temperature (2) extrusions through a 0.1 μM polycarbonate membrane afforded LUVs with a diameter of 100 nm). The LUV suspension was separated from extravesicular dye by size exclusion chromatography (SEC) stationary phase: Sephadex G-10, mobile phase:phosphate buffer) and diluted with the same phosphate buffer to give a stock solution with a lipid concentration of 11 mM (assuming 100% of lipid was incorporated into liposomes).
Fluorimetric Transport Assays. pH-Assisted Transport Assays. Typically, 100 μL of HPTS-loaded vesicles (stock solution) was suspended in 1.85 mL of the corresponding buffer and placed into a fluorimetric cell. HPTS emission at 510 nm was monitored with excitation wavelengths at 403 and 460 nm simultaneously. During the experiment, 20 μL of a 0-10 mM THF solution of the compound of interest was added through an injection port, followed by injection of 21 μL of 0.5 M aqueous NaOH. Addition of the NaOH caused a pH increase of approximately 1 pH unit in the extravesicular buffer. Maximal changes in dye emission were obtained at the end of each experiment by lysis of the liposomes with detergent (40 μL of 5% aqueous Triton x100). The final transport trace was obtained as a ratio of the emission intensities monitored at 460 and 403 nm and normalized to 100% of transport.

[2] = pH-stat fluorescent transport assay with oligophenoxyacetamides (HPTS-loaded liposomes); conditions: 100 mM NaCl inside and outside
Experimental: FIGS. 1A and 1B are derived from of pH-stat fluorescent assays with oligophenoxyacetamide compounds 1-6 described herein. Suspensions of EYPC LUVs containing the pH sensitive dye pyranine (ex 405 nm and 460 nm em 510 nm) in a phosphate buffer were used (0.5 mM of lipid, 10 mM NanH3-nPO4 n=1, 2, pH 6.4 100 mM NaCl inside and outside) (A) illustrates initial pseudo-first order rate constants in the presence of 5 μm of ionophores 1-6 (1 mol % injection of 20 μl of 0.5 mM DMSO solution of 1-6 into 1.9 mL of vesicular suspension was followed by injection of 21 μl of 0.5 M NaOH and final lysis of liposomes with Triton X-100; (B) illustrates initial pseudo-first order rate constants assessed for various concentrations of oligomeric ionophores 2-6. The same experimental protocol as in (A) was used. Legend for traces denotes use of oligocompounds 2, 3, 4, 5, 6.
(§1) Liposome Preparation for Fluorimetric Assays. Egg yolk L-α-phosphatidylcholine (EYPC ethanol solution, […], 79 μmol) was dissolved in a CHCl3/MeOH mixture, the solution was evaporated under reduced pressure and the resulting thin film was dried under high vacuum for 2 h. The lipid film was hydrated in 1.2 mL of phosphate buffer (10 mM sodium phosphate, pH=6.4, 75-100 mM MnX, M=N^+, K^+, X=Cl^−, SO4^2−, n=1,2) containing 10 μM HPTS (pyranine, 8-hydroxypyrene-1,3,6-trisulfonic acid trisodium salt) for 40 min. During hydration, the suspension was submitted to 5 freeze-thaw cycle (liquid nitrogen, water at rt). The large multilamellar liposome suspension (1 mL) was submitted to high-pressure extrusion at rt (21 extrusions through a 0.1 μm polycarbonate membrane afforded a suspension of LUVs with an average diameter of 100 nm). The LUV suspension was separated from extravesicular dye by size exclusion chromatography (SEC) (stationary phase: Sephadex G-10, mobile phase: phosphate buffer) and diluted with the same phosphate buffer to give a stock solution with a lipid concentration of 11 mM (assuming 100% of lipid was incorporated into liposomes).
pH-state transport assays. Typically, 100 μL of HPTS-loaded vesicles (stock solution) was suspended in 1.9 mL of the corresponding buffer and placed into a fluorimetric cell. The emission of HPTS at 510 nm was monitored with excitation wavelengths at 403 and 460 nm simultaneously. During the experiment, 20 μL of a 0-10 mM DMSO solution of the compounds of interest was added (through an injection port), followed by injection of 21 μL of 0.5 M aqueous NaOH. […] Maximal possible changes in dye emission were obtained at the end of each experiment by lysis of the liposomes with detergent (40 μL of 5% aqueous Triton X100). The final transport trace was obtained as a ratio of the emission intensities monitored at 460 and 403 nm and normalized to 100% of transport. Pseudo-first order rate constants were calculated from slopes of the plot of In([H^+ins]−[H^+out]) versus time, here [H^+ins] and [H^+out] are the intravesicular and extravesicular proton concentrations, respectively. The [H^+out] was assumed to remain constant over the course of the experiment, while [H^+ins] values were calculated for each point from the HPTS emission intensities according to the calibration equation pH=1.1684·log(Io/Il)+6.9807, where Io is the emission intensity with excitation at 460 nm and Il is emission intensity with excitation at 403 nm. The calibration was performed by measuring the HPTS emission intensities and the pH values of a […] HPTS solution in 10 mM phosphate buffer containing 100 mM NaCl (see FIG. s3). The absolute values for rate constants varied depending on the age of the vesicular solution and the actual stock solution of liposomes used.

[3] = pH changes in liposomes experiencing a Cl- gradient (oligophenoxyacetamides); conditions: NaCl-loaded liposomes in Na2SO4 buffer; for alkalinization of the vesicular compartment: equal amount (4 mol %)
Experimental: FIG. 2B illustrates alkanization of the vesicular aqueous compartment upon application of compounds 1-6 to a suspension of NaCl-containing vesicles in isosmomolar Na2SO4 buffer. Concentration of compounds 1-6 in the vesicular suspension was 20 μm (4 mol %). Legend for traces denotes use of oligocompounds 1, 2, 3, 4, 5, 6.
as §1
(§2) Analysis of pH changes in the liposomes experiencing a CT gradient. a) Outwardly directed gradient of Cl:HPTS-loaded vesicles (100 μL of the stock solution), filled with a saline phosphate buffer (10 mM sodium phosphate, pH 6.4, 100 mM NaCl) were suspended in 1.9 mL of an isosmotic phosphate sulfate buffer (10 mM sodium phosphate, pH 6.0, 75 mM Na2SO4) and placed into a fluorimetric cell. The emission of HPTS at 510 nm was monitored with excitation wavelengths at 403 and 460 nm simultaneously. During the experiment, 20 μL of a 0-2 mM DMSO solution of the compound of interest was added through an injection port. Intravesicular pH values were obtained as described for pH-stat transport assays. At the end of experiment, the aqueous compartment of liposomes was equilibrated with extravesicular solution by lysis of liposomes with detergent (40 μL of 5% aqueous Triton X100). b) Inwardly directed gradient of Cl:HPTS-loaded vesicles (100 μL of the stock solution), filled with a isoosimomolar sulfate phosphate buffer (10 mM sodium phosphate, pH 6.0, 75 mM Na2SO4) were suspended in 1.9 mL of an isosmotic phosphate saline buffer (10 mM sodium phosphate, pH 6.4, 100 mM NaCl) and placed into a fluorimetric cell. Further analysis was conducted as described for the case of an outwardly directed gradient of […]. Analysis of the electrostatic potential on the surface of liposomes. LUVs (100 μL of stock solution, 100 mM KCl inside and outside or 75 mM Na2SO4 inside and outside) were suspended in 1.9 mL of 100 mM NaCl buffer containing 60 nM safranin O (a potential-sensitive dye). Safranin O emission was monitored at 580 nm with excitation at 520 nm. During the course of the experiment, 20 μL of a 0-0.12 mM DMSO solution of valinomycin or 0-2 mM of 3-8 DMSO solution was added. Experiments were completed by injection of 20 μL of 1 mM aqueous solution of the defect-inductive peptide melittin.

[4] = liposome potential assay with safranin O; conditions: Na2SO4 vesicles in NaCl buffer (conditions of the trimer)
Experimental: FIG. 3 illustrates liposome potential assays. Suspension of EYPC LUVs in phosphate buffer was used (10 m M Nan H3-n PO4, n=1, 2, pH 6.4, 100 m M KCl or 75 m M Na2 H3-n PO4, n=1, 2, pH 6.4, 100 m M KCl or 75 m M NA2 SO4 inside and 100 m M NaCl, 60 nM safranin O, ex 480 nm, em 520 nm, outside). Legend for trace denotes the formation of potential in: —KCl vesicles upon application of valinmycin·Na2SO4 vesicles upon application of 3, —KCl vesicles upon application of 3, —Na2SO4 vesicles upon application of valinomycin.
as §2

CNC(=O)COc1c2cccc1Cc1cccc(c1OCC(=O)NC)Cc1cccc(c1OCC(=O)NC)Cc1cccc(c1OCC(=O)NC)C2 [Calix[4]arene tetramethylamide 1, Calix[4]arene tetramethylamide]
transport activity [1]: little transport activity

CCCCNC(=O)COc1ccccc1Cc1ccccc1OCC(=O)NCCCC [Dimer 2, bis-(N-butyl-2-phenoxyacetamide)]
transport activity ([2]; below 4 mol % (20 μm)): moderate transport activity
alkalinization of the vesicular compartment [3]: Alkanization of the vesicular compartment was observed

CCCCNC(=O)COc1ccccc1Cc1cccc(Cc2cccc(Cc3cccc(Cc4cccc(Cc5ccccc5OCC(=O)NCCCC)c4OCC(=O)NCCCC)c3OCC(=O)NCCCC)c2OCC(=O)NCCCC)c1OCC(=O)NCCCC [hexamer 6, Hexakis-(N-butyl-2-phenoxyacetamide)]
alkalinization of the vesicular compartment [3]: Alkanization of the vesicular compartment was observed

CCCCNC(=O)COc1ccccc1Cc1cccc(Cc2cccc(Cc3cccc(Cc4ccccc4OCC(=O)NCCCC)c3OCC(=O)NCCCC)c2OCC(=O)NCCCC)c1OCC(=O)NCCCC [pentamer 5, Pentakis-(N-butyl-2-phenoxyacetamide)]
alkalinization of the vesicular compartment [3]: Alkanization of the vesicular compartment was observed

CCCCNC(=O)COc1ccccc1Cc1cccc(Cc2cccc(Cc3ccccc3OCC(=O)NCCCC)c2OCC(=O)NCCCC)c1OCC(=O)NCCCC [tetramer 4, Tetrakis-(N-butyl-2-phenoxyacetamide)]
relative transport activity within the series 1-6 [2]: generally more effective than pentamer 5 and hexamer 6
pH gradient generated ([3]; 4 mol %): the same pH gradient
time to reach the pH gradient ([3]; 4 mol %): 4.5 minutes
relative ability to alter the pH in liposomes under a Cl− gradient [3]: less active than trimer 3

CC(C)[C@@H]1NC(=O)[C@H](C)OC(=O)[C@@H](C(C)C)NC(=O)[C@@H](C(C)C)OC(=O)[C@H](C(C)C)NC(=O)[C@H](C)OC(=O)[C@@H](C(C)C)NC(=O)[C@@H](C(C)C)OC(=O)[C@H](C(C)C)NC(=O)[C@H](C)OC(=O)[C@@H](C(C)C)NC(=O)[C@@H](C(C)C)OC1=O [valinomycin, reference compound]
ability to create a transmembrane potential [4]: cannot create a potential
